Results published in patent US20240285785A1, “TARGETING SORTILIN” (priority 2022, published 2024).
One block for each compound: values may come before it.

Key:
[1] = Dynamic light scattering (DLS) solubility/aggregation; type: physicochemical; conditions: working concentrations (250 nM, PBS, pH 7.4)
Protocol: Samples were spun down on a bench top centrifuge, 15 minutes, 15,000 rpm, room temperature, to pellet any aggregated peptide/dust before taking a measurement. Visual inspection of the tubes was used to identify if any large pellets were formed, which is indicative of large aggregates. […] The plate was then transferred and read on the DLS instrument (Wyatt Technology DynaPro Plate Reader III) at 25° C.

SORT1 = target: T1, SORT1 (Homo sapiens, UniProt Q99523); test: Direct binding in fluorescence polarization (FP), FAM-labeled peptides
T1 construct: Human SORT1 (78-755)-His (Acrobiosystems); His (C); purchased Acrobiosystems SON—H52H5
T1 sequence (Q99523 78-755): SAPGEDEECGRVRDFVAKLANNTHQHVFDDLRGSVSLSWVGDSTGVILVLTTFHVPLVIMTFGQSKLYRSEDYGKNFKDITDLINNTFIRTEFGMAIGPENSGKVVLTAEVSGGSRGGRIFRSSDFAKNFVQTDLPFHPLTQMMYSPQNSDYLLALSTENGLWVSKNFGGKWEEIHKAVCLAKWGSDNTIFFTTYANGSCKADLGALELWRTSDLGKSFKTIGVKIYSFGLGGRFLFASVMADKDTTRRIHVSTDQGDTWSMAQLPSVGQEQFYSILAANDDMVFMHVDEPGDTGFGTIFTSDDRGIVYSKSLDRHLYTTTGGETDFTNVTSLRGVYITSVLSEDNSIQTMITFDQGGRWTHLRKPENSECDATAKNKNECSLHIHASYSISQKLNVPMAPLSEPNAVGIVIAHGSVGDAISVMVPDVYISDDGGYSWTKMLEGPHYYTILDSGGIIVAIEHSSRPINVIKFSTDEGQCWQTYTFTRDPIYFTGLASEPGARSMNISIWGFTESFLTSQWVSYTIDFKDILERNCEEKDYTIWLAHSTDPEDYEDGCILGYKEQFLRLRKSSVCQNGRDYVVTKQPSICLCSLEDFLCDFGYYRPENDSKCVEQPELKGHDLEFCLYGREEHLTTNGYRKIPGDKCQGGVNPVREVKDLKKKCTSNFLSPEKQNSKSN
Protocol: Peptides were dissolved into stock solutions in water, then brought up to final concentrations in 1×PBS, pH 7.4 and tested in DLS and CD (methods above) to ensure the peptides were soluble. Peptide concentrations were determined by quantifying the dye using the nanodrop and dye specific extinction coefficient at a specific wavelength. For FAM labeled dyes, the extinction coefficient 83000 cm^−1 M^−1 was used.
FAM labeled peptides were diluted to 1 μM in FP buffer (1×PBS, pH 7.4, 0.1% Tween-20) and serially diluted two-fold for a 12-point series to determine concentration at which the fluorescence intensity was 10,000 RFU and the polarization of the peptide was consistent. A 10× working solution would thus be 10× the concentration of FAM labeled peptide that satisfied the above criteria. […]
A 10× working solution of FAM-labeled peptides was prepared in the FP buffer (1×PBS, pH 7.4, 0.1% Tween-20). […] The 384-well plate was then centrifuged 1 min, 4000 rpm and fluorescence and polarization of dye measured on a Biotek Synergy Neo2 plate reader using the following settings (Excitation 485/20, Emission 528/20, Top read, Gain: 75, Light source: Xenon Flash, Lamp Energy: Low, Standard Dynamic range, Read speed: Normal, Delay: 0 msec, Measurements/Data Point: 10, Read Height: 9 mm). […]

[2] = Murine hematotoxicity assay; type: in vivo, BALB/c mice; conditions: 3 mg/kg i.v. QW×4, compared to vehicle or MMAE treatment
Protocol: Murine hematotoxicity experiments were conducted at Charles River Laboratories and the care and use of animals was conducted in accordance with the regulations of the Association for Assessment and Accreditation of Laboratory Animal Care (AAALAC). Wild type BALB/c, female, 7-8 weeks, weighing approximately 18-22 g were randomized and dosed intravenously with control or test articles at a QW×4 schedule. Dosing volume was adjusted based on body weight and was administered at 10 mL/Kg. PDCs were dissolved in 25 mM Histidine 10% sucrose pH 7 and 3 mg/kg was administered. Free MMAE payload was also tested, and similarly dissolved in 25 mM Histidine 10% sucrose pH 7 and administered to the mice at a dose of […] by i.v. injection at a QW×4 schedule. 3 days following each dose, 150 μL of whole blood was collected via submandibular method and placed in K2 EDTA tubes stored on ice. Blood neutrophil counts were performed on the day of collection by IDEXX labs. Body weights were recorded twice a week until study endpoint.
As outlined in the material and methods of Example 1, wild type BALB/c, female, 7-8 weeks, weighing approximately 18-22 g were randomized and dosed intravenously with control or test articles at a QW×4 schedule. Dosing volume was adjusted based on body weight and was administered at 10 ml/Kg. […] Free MMAE payload was also tested, and similarly dissolved in 25 mM Histidine 10% sucrose pH 7 and administered to the mice at a dose of […] by i.v. injection at a QW×4 schedule. 3 days following each dose, 150 μL of whole blood was collected via submandibular method and placed in K2 EDTA tubes stored on ice. Blood neutrophil counts were performed on the day of collection by IDEXX labs. Body weights were recorded twice a week until study endpoint.

MDA-MB-231 tumor cells = test: MDA-MB-231 murine xenograft efficacy model; type: in vivo, BALB/c Nude mice
Protocol: Murine xenograft experiments were conducted at WuXi AppTec and/or Charles River Laboratories and the care and use of animals was conducted in accordance with the regulations of the Association for Assessment and Accreditation of Laboratory Animal Care (AAALAC). MDA-MB-231 tumor cells (ATCC, Manassas, VA, cat #HTB-26) were grown and maintained in L15 medium supplemented with 10% heat inactivated fetal bovine serum, 1% Antibiotic-Antimycotic, and L-glutamine (2 mM) at 37° C. in an atmosphere in 5% CO2, 95% air. BALB/c Nude, female, 6-8 weeks, weighing approximately 18-22 g were purchased from Vital River Laboratory Animal Technology Co., LTD. Mice were inoculated subcutaneously at the right flank with MDA-MB-231 tumor cells (e.g., triple negative breast cancer cells) (10×10^6) in 0.2 mL of PBS with Matrigel (1:1) for tumor development. Animals were randomized and treatment was started when the average tumor volume reached approximately 150-200 mm^3 for the efficacy study. Dosing volume was adjusted based on body weight and was administered at 10 ml/Kg. […] Free MMAE payload was also tested, and similarly dissolved in 25 mM Histidine 10% sucrose pH 7 and one or more of the following doses, 0.6, 0.06 mg/kg, were administered to the mice i.v. at a QW×4 schedule. Tumor sizes were measured twice weekly in two dimensions using a caliper, and the volume in mm^3 calculated using the formula: V=0.5 a×b^2, where a and b are the long and short diameters of the tumor, respectively. TGI was calculated for each group using the formula: TGI (%)=[1−(Ti−T0)/(Vi−V0)]×100; where Ti is the average tumor volume of a treatment group on a given day, T0 is the average tumor volume of the treatment group on the first day of treatment, Vi is the average tumor volume of the vehicle control group on the same day with Ti, and V0 is the average tumor volume of the vehicle group on the first day of treatment.

[3] = Maximum tolerated dose (MTD) study; type: in vivo, BALB/c Nude mice; conditions: 10 mg/kg single i.v. dose
Protocol: BALB/c Nude mice, female, 6-8 weeks, weighing approximately 18-22 g were purchased from the Shanghai SLAC Laboratory Animal Co., LTD. MTD studies were conducted at WuXi AppTec and the care and use of animals was conducted in accordance with the regulations of the Association for Assessment and Accreditation of Laboratory Animal Care (AAALAC). Two MTD studies were performed (a) a low dose study with doses ranging from 0.1, 0.5, 1 and 3 mg/kg and (b) a high dose study with doses ranging from 3, 5, 10 mg/kg. Dosing volume was determined based on body weight (10 ul/g) and PDCs were dissolved in 25 mM Histidine 10% sucrose pH 7 and administered i.v. at a single dose at day 0. The treatment and observation were conducted up to 7 days and MTD was defined by ≥20% body weight loss. Body weights were measured daily, death and observed clinical signs were recorded.
Doses of 3, 5, and 10 mg/kg were administered. MTD was defined by ≥20% body weight loss and body weight measured daily.

solubility (DLS) [1]: good solubility
Compound: CC(C)C[C@H](NC(=O)[C@H](CC(C)C)NC(=O)[C@H](CCC(N)=O)NC(=O)[C@H](CCCNC(=N)N)NC(=O)[C@H](CC(C)C)NC(=O)[C@H](C)NC(=O)[C@@H]1CCCN1C(=O)[C@H](CC(=O)O)NC(=O)[C@H](CCCNC(=N)N)NC(=O)[C@H](CC(C)C)NC(=O)[C@@H]1CCCN1C(=O)[C@H](C)NC(=O)[C@H](CC(=O)O)NC(=O)[C@H](Cc1c[nH]c2ccccc12)NC(=O)[C@H](CCCNC(=N)N)NC(=O)[C@@H]1CCCN1C(=O)[C@H](C)N)C(=O)O [PRGN_WT]

solubility (DLS) [1]: good solubility
poorer affinity than the WT sequence (PRGN_WT) (SORT1; binding to SORT1-Ag): ~7 ×
Compound: CC(C)C[C@H](NC(=O)[C@H](CCCNC(=N)N)NC(=O)[C@H](CC(C)C)NC(=O)[C@H](C)NC(=O)[C@H](CC(C)C)NC(=O)[C@H](CCCNC(=N)N)NC(=O)[C@H](CCC(N)=O)NC(=O)[C@H](CC(C)C)NC(=O)[C@H](C)NC(=O)[C@@H]1CCCN1C(=O)[C@H](Cc1c[nH]c2ccccc12)NC(=O)[C@@H]1CCCN1C(=O)[C@H](C)NC(=O)[C@H](CCCNC(=N)N)NC(=O)[C@@H]1CCCN1C(=O)[C@H](CC(=O)O)NC(=O)[C@@H](N)CC(=O)O)C(=O)O [PRGN_RL]

More lines, now with the values behind:

Compound: CC(C)C[C@H](NC(=O)[C@H](CC(C)C)NC(=O)[C@H](CC(=O)O)NC(=O)[C@H](CCCNC(=N)N)NC(=O)[C@@H]1CCCN1C(=O)[C@H](CC(C)C)NC(=O)[C@H](CCCNC(=N)N)NC(=O)[C@H](C)NC(=O)[C@H](CC(C)C)NC(=O)[C@H](CCCNC(=N)N)NC(=O)[C@@H](N)CCC(N)=O)C(=O)N[C@@H](C)C(=O)N[C@@H](Cc1c[nH]c2ccccc12)C(=O)N1CCC[C@H]1C(=O)N1CCC[C@H]1C(=O)N[C@@H](C)C(=O)N[C@@H](CC(=O)O)C(=O)O [PRGN_scr, reference compound]
solubility (DLS) [1]: good solubility
affinity in FP (direct binding to SORT1-Ag) (SORT1; direct titration, FAM-labeled peptide): no binding

Compound: CCCC[C@@H]1NC(=O)[C@H](CCCNC(=N)N)NC(=O)[C@H](CCCCNC(=O)CN(C)C(=O)CN(C)C(=O)CN(C)C(=O)CN(C)C(=O)CCNC(=O)CCCC(=O)N[C@H](C(=O)N[C@@H](CCCNC(N)=O)C(=O)Nc2ccc(COC(=O)N(C)[C@H](C(=O)N[C@H](C(=O)N(C)[C@@H]([C@@H](C)CC)[C@@H](CC(=O)N3CCC[C@H]3[C@H](OC)[C@@H](C)C(=O)N[C@H](C)[C@@H](O)c3ccccc3)OC)C(C)C)C(C)C)cc2)C(C)C)NC(=O)[C@H](CC(N)=O)NC(=O)[C@H](CCC(=O)O)NC(=O)[C@@H](NC(=O)[C@H](Cc2c[nH]c3ccccc23)NC(=O)[C@H](CCCNC(=N)N)NC(C)=O)CSSC[C@@H](C(=O)N[C@@H](CCCNC(=N)N)C(=O)N[C@@H](CCC(N)=O)C(=O)N[C@H](C(=O)N[C@@H](CC(C)(C)C)C(=O)O)C(C)(C)C)NC(=O)[C@H]([C@@H](C)O)NC(=O)[C@H](Cc2ccccc2)NC1=O [Arb_cyclic_G23-PDC]
blood neutrophil counts [2]: reduced neutrophil counts
tumor growth inhibited relative to vehicle (MDA-MB-231 tumor cells; 3 mg/kg i.v. QW×4, day 22 (Example 8)): 68%
body weight loss (MDA-MB-231 tumor cells; Example 8, PDC 3 mg/kg, free MMAE 0.6 mg/kg, i.v. QW×4): body weight loss tracked each other

Compound: CC[C@H](C)[C@@H]([C@@H](CC(=O)N1CCC[C@H]1[C@H](OC)[C@@H](C)C(=O)N[C@H](C)[C@@H](O)c1ccccc1)OC)N(C)C(=O)[C@@H](NC(=O)[C@H](C(C)C)N(C)C(=O)OCc1ccc(NC(=O)[C@H](CCCNC(N)=O)NC(=O)[C@@H](NC(=O)CCCC(=O)NCCC(=O)N(C)CC(=O)N(C)CC(=O)N(C)CC(=O)N(C)CC(=O)N[C@@H](CC(=O)O)C(=O)N[C@@H](CC(=O)O)C(=O)N2CCC[C@H]2C(=O)N[C@@H](CCCNC(=N)N)C(=O)N[C@@H](C)C(=O)N2CCC[C@H]2C(=O)N[C@@H](Cc2c[nH]c3ccccc23)C(=O)N2CCC[C@H]2C(=O)N[C@@H](C)C(=O)N[C@@H](CC(C)C)C(=O)N[C@@H](CCC(N)=O)C(=O)N[C@@H](CCCNC(=N)N)C(=O)N[C@@H](CC(C)C)C(=O)N[C@@H](C)C(=O)N[C@@H](CC(C)C)C(=O)N[C@@H](CCCNC(=N)N)C(=O)N[C@@H](CC(C)C)C(=O)O)C(C)C)cc1)C(C)C [PRGN_RL_PDC]
toxicity [3]: mild toxicity
